Experiments:
[1] = test system: IL-13-stimulated STAT6 phosphorylation in human lung bronchial epithelial BEAS-2B cell line; assay: P-STAT6 BEAS-2B + IL-13 cell assay; format: cell-based; conditions: Homo sapiens, BEAS-2B, BEAS2B cells, IL13 stimulation; read-out: Cellular JAK1 PSTAT6 BEAS2B + IL13
In short: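 BEAS-2B cells grown 48 h at 37 °C, pre-treated 1 h with compound (10-point 1:2 dilution curve), then stimulated 15 min with human recombinant IL-13 (250 ng/mL stock). Lysate P-STAT6 (Tyr641) read by MSD sandwich ELISA with total-STAT6 capture; IC50 from four-parameter logistic fit of control-normalised data.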

[2] = molecular target: Recombinant human JAK2 kinase domain protein (Residues 812-1132) (Homo sapiens, UniProt O60674); assay: JAK2 biochemical assay (LabChip mobility shift, Ki); conditions: Biochem JAK2 Ki
Protocol: The in vitro biochemical assays quantify JAK-catalyzed phosphorylation of a synthetic peptide, as detected using a LabChip® EZ Reader II microfluidic mobility shift instrument (PerkinElmer; Waltham, MA). […] Y-1B is fluorescently labeled on the N-terminus with 5-FAM (5-carboxyfluorescein) and contains a single tyrosine residue (Y) that can be phosphorylated by JAK activity. The substrate peptide stock is prepared in DMSO at 5 mM. […] In each titration experiment, test compound was tested in duplicate at each of the twelve concentrations. Blank reactions contained ATP, peptide, and DMSO, but no JAK or test compound, whereas uninhibited control reactions contained ATP, peptide, JAK, and DMSO, but no test compound.
Peptide plus ATP mixture (24 μL) was added to 1 μL of test compound in DMSO (or DMSO alone). The reactions were initiated by adding 25 μL of JAK enzyme to the inhibitor/peptide/ATP mixture before thoroughly mixing the resultant solution. Reactions were incubated at room temperature (22° C.-23° C.) in a final volume of 50 μL per well in 384-well plates. After a 30-minute incubation, the reactions were stopped by adding 25 μL of 150 mM ethylenediaminetetraacetic acid in 100 mM HEPES buffer (pH 7.2) containing 0.015% Brij 35 to each well.
In each reaction, the residual Y-1B substrate and the phospho-peptide product generated were separated using the EZ Reader II instrument. Electrophoretic separation of molecules of product from molecules of substrate was achieved using downstream and upstream voltages of −500 and −2600 V, respectively, at an operating pressure of −1.3 psi.
The extent (or percent) of conversion of substrate to product was calculated from the corresponding peak heights in the electropherogram using HTS Well Analyzer software, Version 5.2 (PerkinElmer), and the following equation (Equation 1): conversion=[P÷(S+P)]×100 Equation 1% where S and P represent the peak heights of the substrate and product, respectively. After any baseline signal from blank wells containing no JAK was subtracted from the signal of all test wells, the % conversion data were converted to fractional activity as shown in Equation 2, where vi and vo are the % conversion in the presence and absence of test compound, respectively.

[3] = molecular target: T1, recombinant human JAK1 kinase domain protein (Residues 854-1154) (Homo sapiens, UniProt P23458); assay: JAK1 biochemical assay (LabChip mobility shift, Ki); conditions: read-out: Biochem JAK1 Ki
T1 construct: human JAK1 kinase domain protein (Residues 854-1154); purchased Proteros Biostructures GmbH (Martinsried, Germany); host or cells: insect cells
T1 sequence (P23458 854-1154): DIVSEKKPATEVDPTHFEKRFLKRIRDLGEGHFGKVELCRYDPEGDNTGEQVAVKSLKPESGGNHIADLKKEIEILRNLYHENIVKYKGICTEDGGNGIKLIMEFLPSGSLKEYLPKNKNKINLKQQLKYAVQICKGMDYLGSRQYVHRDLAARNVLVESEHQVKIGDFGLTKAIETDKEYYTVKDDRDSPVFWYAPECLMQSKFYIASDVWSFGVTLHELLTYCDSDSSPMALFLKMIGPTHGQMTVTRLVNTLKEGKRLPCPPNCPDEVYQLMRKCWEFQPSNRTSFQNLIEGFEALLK

Sequence of Recombinant human JAK2 kinase domain protein (Residues 812-1132) (O60674 812-1132): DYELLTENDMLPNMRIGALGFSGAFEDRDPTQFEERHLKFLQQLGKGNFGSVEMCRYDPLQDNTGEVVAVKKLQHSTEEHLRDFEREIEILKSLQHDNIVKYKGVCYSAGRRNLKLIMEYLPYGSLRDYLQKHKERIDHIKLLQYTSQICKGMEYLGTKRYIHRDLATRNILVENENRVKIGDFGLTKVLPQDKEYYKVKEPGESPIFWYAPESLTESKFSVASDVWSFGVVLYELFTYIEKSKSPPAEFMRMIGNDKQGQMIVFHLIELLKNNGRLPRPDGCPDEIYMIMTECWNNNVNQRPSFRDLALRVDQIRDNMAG

Ki [2] | Ki [3] | SMILES | IC50 [1]
0.14 nM | 0.39 nM | Cc1ccc(Oc2ccc(OC(F)F)c(-c3n[nH]cc3NC(=O)c3cnn4cccnc34)c2)cc1 [Example 25, N-[3-[2-(difluoromethoxy)-5-(4-methylphenoxy)phenyl]-1H-pyrazol-4-yl]pyrazolo[1,5-a]pyrimidine-3-carboxamide] | 11 nM
0.75 nM | 0.81 nM | CN(CC(=O)N(C)C)Cc1cccc(Oc2ccc(OC(F)F)c(-c3nn(C)cc3NC(=O)c3cnn4cccnc34)c2)c1 [Example 60] | 35 nM
0.86 nM | 0.37 nM | CN1CCC[C@H]1Cn1cc(NC(=O)c2cnn3cccnc23)c(-c2cc(Oc3ccccc3)ccc2OC(F)F)n1 (racemic) [Example 31, N-[3-[2-(difluoromethoxy)-5-phenoxy-phenyl]-1-[[rac-(2R)-1-methylpyrrolidin-2-yl]methyl]pyrazol-4-yl]pyrazolo[1,5-a]pyrimidine-3-carboxamide] | 9.2 nM
0.91 nM | 1.1 nM | Cn1cc(NC(=O)c2cnn3cccnc23)c(-c2cc(Oc3cnn(CCN)c3)ccc2OC(F)F)n1 [Example 126, N-[3-[5-[1-(2-aminoethyl)pyrazol-4-yl]oxy-2-(difluoromethoxy)phenyl]-1-methyl-pyrazol-4-yl]pyrazolo[1,5-a]pyrimidine-3-carboxamide] | 67 nM
0.88 nM | 0.89 nM | CN(C)CCN(C)C(=O)c1cccc(Oc2ccc(OC(F)F)c(-c3nn(C)cc3NC(=O)c3cnn4cccnc34)c2)c1 [Example 206, N-[3-[2-(difluoromethoxy)-5-[3-[2-(dimethylamino)ethyl-methyl-carbamoyl]phenoxy]phenyl]-1-methyl-pyrazol-4-yl]pyrazolo[1,5-a]pyrimidine-3-carboxamide] | 45 nM
0.39 nM | 0.67 nM | Cn1cc(NC(=O)c2cnn3cccnc23)c(-c2cc(Oc3cccc([C@@H]4COCCN4)c3)ccc2OC(F)F)n1 (stereo in doubt) [Example 32, N-[3-[2-(difluoromethoxy)-5-[3-[rac-(3R)-morpholin-3-yl]phenoxy]phenyl]-1-methyl-pyrazol-4-yl]pyrazolo[1,5-a]pyrimidine-3-carboxamide] | 46 nM
0.89 nM | 3.3 nM | NCc1ccc(Oc2ccc(OC(F)F)c(-c3n[nH]cc3NC(=O)c3cnn4cccnc34)c2)cc1 [Example 3, N-[3-[5-[4-(aminomethyl)phenoxy]-2-(difluoromethoxy)phenyl]-1H-pyrazol-4-yl]pyrazolo[1,5-a]pyrimidine-3-carboxamide] | 15 nM
2.9 nM | 5.1 nM | Cn1cc(NC(=O)c2cnn3cccnc23)c(-c2cc(Oc3ccc(CN4CCOCC4)cc3)ccc2OC(F)F)n1 [Example 61, N-[3-[2-(difluoromethoxy)-5-[4-(morpholinomethyl)phenoxy]phenyl]-1-methyl-pyrazol-4-yl]pyrazolo[1,5-a]pyrimidine-3-carboxamide] | 130 nM
0.58 nM | 1.3 nM | Cn1cc(NC(=O)c2cnn3cccnc23)c(-c2cc(Oc3ccc(CN4CCC4CO)cc3)ccc2OC(F)F)n1 (racemic) [Example 168, N-[3-[2-(difluoromethoxy)-5-[4-[[rac-(2S)-2-(hydroxymethyl)azetidin-1-yl]methyl]phenoxy]phenyl]-1-methyl-pyrazol-4-yl]pyrazolo[1,5-a]pyrimidine-3-carboxamide] | 30 nM
1.4 nM | 0.55 nM | CN1CCC[C@H]1Cn1cc(NC(=O)c2cnn3cccnc23)c(-c2cc(Oc3cccc(CC#N)c3)ccc2OC(F)F)n1 (racemic) [Example 37, N-[3-[5-[3-(cyanomethyl)phenoxy]-2-(difluoromethoxy)phenyl]-1-[[rac-(2R)-1-methylpyrrolidin-2-yl]methyl]pyrazol-4-yl]pyrazolo[1,5-a]pyrimidine-3-carboxamide] | 16 nM
0.38 nM | 0.68 nM | Cn1cc(NC(=O)c2cnn3cccnc23)c(-c2cc(Oc3ccnnc3)ccc2OC(F)F)n1 [Example 202, N-[3-[2-(difluoromethoxy)-5-pyridazin-4-yloxy-phenyl]-1-methyl-pyrazol-4-yl]pyrazolo[1,5-a]pyrimidine-3-carboxamide] | 26 nM
0.23 nM | 0.29 nM | Cn1cc(NC(=O)c2cnn3cccnc23)c(-c2cc(Oc3cnn([C@H]4CNCC[C@@H]4O)c3)ccc2OC(F)F)n1 (stereo in doubt) [Example 180, N-[3-[2-(difluoromethoxy)-5-[1-[rac-(3S,4S)-4-hydroxy-3-piperidyl]pyrazol-4-yl]oxy-phenyl]-1-methyl-pyrazol-4-yl]pyrazolo[1,5-a]pyrimidine-3-carboxamide] | 95 nM
0.48 nM | 0.96 nM | CC(C)N1CCC(O)(Cn2cc(Oc3ccc(OC(F)F)c(-c4nn(C)cc4NC(=O)c4cnn5cccnc45)c3)cn2)CC1 [Example 209, N-[3-[2-(difluoromethoxy)-5-[1-[(4-hydroxy-1-isopropyl-4-piperidyl)methyl]pyrazol-4-yl]oxy-phenyl]-1-methyl-pyrazol-4-yl]pyrazolo[1,5-a]pyrimidine-3-carboxamide] | 190 nM
0.35 nM | 0.35 nM | Cn1cc(NC(=O)c2cnn3cccnc23)c(-c2cc(Oc3cccc(C(=O)N4CCNCC4)c3)ccc2OC(F)F)n1 [Example 80, N-[3-[2-(difluoromethoxy)-5-[3-(piperazine-1-carbonyl)phenoxy]phenyl]-1-methyl-pyrazol-4-yl]pyrazolo[1,5-a]pyrimidine-3-carboxamide] | 61 nM
0.25 nM | 0.51 nM | CN1CCc2ccc(Oc3ccc(OC(F)F)c(-c4n[nH]cc4NC(=O)c4cnn5cccnc45)c3)cc2C1 [Example 36, N-[3-[2-(difluoromethoxy)-5-[(2-methyl-3,4-dihydro-1H-isoquinolin-7-yl)oxy]phenyl]-1H-pyrazol-4-yl]pyrazolo[1,5-a]pyrimidine-3-carboxamide] | 11 nM
3.7 nM | 3.9 nM | Cn1cc(NC(=O)c2cnn3cccnc23)c(-c2cc(Oc3cnn([C@H]4CCNC4)c3)ccc2OC(F)F)n1 (racemic) [Example 144, N-[3-[2-(difluoromethoxy)-5-[1-[rac-(3S)-pyrrolidin-3-yl]pyrazol-4-yl]oxy-phenyl]-1-methyl-pyrazol-4-yl]pyrazolo[1,5-a]pyrimidine-3-carboxamide] | 160 nM
0.92 nM | 1.6 nM | Cn1cc(Oc2ccc(OC(F)F)c(-c3nn(CC(N)=O)cc3NC(=O)c3cnn4cccnc34)c2)cn1 [Example 174, N-[1-(2-amino-2-oxo-ethyl)-3-[2-(difluoromethoxy)-5-(1-methylpyrazol-4-yl)oxy-phenyl]pyrazol-4-yl]pyrazolo[1,5-a]pyrimidine-3-carboxamide] | 240 nM
0.3 nM | 0.31 nM | Cc1c(Oc2ccc(OC(F)F)c(-c3nn(C)cc3NC(=O)c3cnn4cccnc34)c2)cnn1C [Example 152, N-[3-[2-(difluoromethoxy)-5-(1,5-dimethylpyrazol-4-yl)oxy-phenyl]-1-methyl-pyrazol-4-yl]pyrazol[1,5-a]pyrimidine-3-carboxamide] | 20 nM
0.5 nM | 0.58 nM | Cn1cc(NC(=O)c2cnn3cccnc23)c(-c2cc(Oc3cccc(CN(CCO)CCO)c3)ccc2OC(F)F)n1 [Example 45, N-[3-[5-[3-[[bis(2-hydroxyethyl)amino]methyl]phenoxy]-2-(difluoromethoxy)phenyl]-1-methyl-pyrazol-4-yl]pyrazolo[1,5-a]pyrimidine-3-carboxamide] | 34 nM
1.2 nM | 1.2 nM | CCn1cc(NC(=O)c2cnn3cccnc23)c(-c2cc(Oc3cnn(CC4(O)CN(C)C4)c3)ccc2OC(F)F)n1 [Example 208, N-[3-[2-(difluoromethoxy)-5-[1-[(3-hydroxy-1-methyl-azetidin-3-yl)methyl]pyrazol-4-yl]oxy-phenyl]-1-ethyl-pyrazol-4-yl]pyrazolo[1,5-a]pyrimidine-3-carboxamide] | 72 nM
0.6 nM | 0.84 nM | CCN1CCC(O)(Cn2cc(Oc3ccc(OC(F)F)c(-c4nn(C)cc4NC(=O)c4cnn5cccnc45)c3)cn2)CC1 [Example 212, N-[3-[2-(difluoromethoxy)-5-[1-[(1-ethyl-4-hydroxy-4-piperidyl)methyl]pyrazol-4-yl]oxy-phenyl]-1-methyl-pyrazol-4-yl]pyrazolo[1,5-a]pyrimidine-3-carboxamide] | 120 nM
2.3 nM | 1.6 nM | CN1CCCC(O)(Cn2cc(Oc3ccc(OC(F)F)c(-c4nn(C)cc4NC(=O)c4cnn5cccnc45)c3)cn2)C1 (stereo not drawn) [Example 193, N-[3-[2-(difluoromethoxy)-5-[1-[(3-hydroxy-l-methyl-3-piperidyl)methyl]pyrazol-4-yl]oxy-phenyl]-1-methyl-pyrazol-4-yl]pyrazolo[1,5-a]pyrimidine-3-carboxamide] | 58 nM
1 nM | 1.7 nM | Cc1ccc(Oc2ccc(OC(F)F)c(-c3nn(CCN[C@H]4CCCOC4)cc3NC(=O)c3cnn4cccnc34)c2)cc1C(=O)N(C)C (racemic) [Example 83, N-[3-[2-(difluoromethoxy)-5-[3-(dimethylcarbamoyl)-4-methyl-phenoxy]phenyl]-1-[2-[[rac-(3R)-tetrahydropyran-3-yl]amino]ethyl]pyrazol-4-yl]pyrazolo[1,5-a]pyrimidine-3-carboxamide] | 150 nM

From patent US12528812B2 (Genentech, Inc., priority 2020, dated 2026)
